The structures appear in SMILES notation.

For orientation: melting point means the temperature of the solid-liquid transition. With `COc1cc(C(F)(F)F)cc(Cl)c1-n1nc(C#N)c(SC(C)(F)F)c1N`, the melting point was 79 °C.
Next, `Cc1c(C2CCC(Cc3ccccc3)(N(C)C)CC2)[nH]c2ccc(C(F)(F)F)cc12` (stereo not drawn): 166 to 174 °C; `N#Cc1cc2c(cc1C(F)(F)F)[nH]c(=O)c(=O)n2OCC(=O)O`: 257 °C.
As for `CC1=C(C(O)c2ccc3c(c2)CCN(C(N)=O)C3)C(C)(C)CCC1` (stereo not drawn), the figure is 88.3 to 89 °C.
As for `COC(=O)C(C(=O)OC)C(C)(N)C(Cc1ccccc1[N+](=O)[O-])c1ccccc1` (stereo not drawn), the figure is 114 °C; as for `CCOCc1nc2c(N)nc3cc(-c4cccnc4)ccc3c2n1CCCCNC(=O)c1ccc(C(OCCN(C)C)c2ccccc2)cc1` (stereo not drawn), 157 to 161 °C.
As for `O=C(NC(CCc1ccccc1)C(=O)Nc1n[nH]c(=S)s1)OCC1c2ccccc2-c2ccccc21` (stereo not drawn), the melting point was 186 to 187 °C.
As for `CCOc1ccc(C(=O)CCC(=O)Nc2cc(OCCC(C)C)cc(-c3ccccc3)n2)cc1OCC`, the figure is 122 to 123 °C.
Regarding `CCCc1nc(I)c(CO)[nH]1`, the melting point is 169 to 170 °C.
As for `Cc1ccc2[nH]cc(C3=C(c4c[nH]c5ccc(C)cc45)C(=O)N(C)C3=O)c2c1`, the figure is 270 to 275 °C; as for `COc1cc(NC(=O)NC(=O)c2c(F)cccc2F)ccc1OC(F)(F)C(F)(F)c1ccc(Cl)cc1`, 133 to 134 °C.
As for `NS(=O)(=O)c1cnc(-c2cn(-c3cc(-c4ccc(Cl)cc4)cc(C(F)(F)F)n3)cn2)s1`, the figure is 263 °C; as for `O=c1ccc(S(=O)(=O)c2[nH]c3ccccc3c2Cl)n[nH]1`, 250 °C.
The compound `OCC1OC(n2cnc3c(NN4CCCCC4)nc(F)nc32)C(O)C1O` (stereo not drawn) returned a melting point of 197 to 199 °C.
Next, `CCc1ncnc(Cl)c1I`: 56 to 57 °C; `COC(=O)C(=CN(C)C)C(=O)c1cc(F)c(Cl)cc1Cl`: 107 to 109 °C; `N#Cc1ccc(OCc2ccncc2)cc1OC(C(=O)O)c1ccccc1` (racemic): 218 to 220 °C.
In turn, `Cc1[nH]c(-c2ccccc2F)c(C)c1C#N` had a melting point of 125 to 127 °C.
Next, `COC(=O)[C@@H]1C[C@H](OC(=O)c2cc3ccccc3o2)C(=O)[C@H]2[C@@]1(C)CC[C@H]1C(=O)O[C@H](c3ccoc3)C[C@]21C`: 226 to 227 °C; `CC(=O)c1cnc2c(c1)oc(=O)n2CCc1ccncc1`: 148 to 150 °C; `COC(=O)c1cccc(Oc2cccc(-c3nn(C)c(=Nc4ccc(Cl)c(Cl)c4)s3)c2)c1`: 193 to 196 °C.
Next, `COC(=O)c1ccccc1-n1c(CCl)nc2c(C)cccc2c1=O`: 168 to 169 °C; `Cc1ccc2c(Cl)ccnc2c1[N+](=O)[O-]`: 140 to 147 °C; `COc1ccc(C(=O)Nc2ccccc2)cc1NS(=O)(=O)c1cccc(C)c1`: 195 to 197 °C.
As for `Cc1cc(C(=O)N2Cc3cccn3Cc3ccccc32)ccc1NC(=O)c1ccc(Cl)cc1Cl`, the figure is 213 to 215 °C; as for `CC(C)CC1(CCCCN2CCc3sccc3C2)C(=O)Nc2ccccc21` (stereo not drawn), 114 to 116 °C.
In the case of `CCOC(=O)C1=Cc2cc(C)cc(Br)c2NC1C(F)(F)F` (stereo not drawn), the melting point lay within 122 to 124 °C.
Next, `CN(C)c1nc(N)ncc1Cc1ccccc1`: 181 to 182 °C; `Cc1ccc2c([nH]c3c(C(=O)N4CCOCC4)cccc32)c1C`: 183 °C.
Turning to `C/C(NC1CCCCCC1)=C(\C#N)C(N)=S`, the melting point fell in the range of 132 to 134 °C.
Next, `O=C1CCC(N2Cc3cc(CNC(=O)c4ccccc4C(F)(F)F)ccc3C2=O)C(=O)N1` (stereo not drawn): 303 to 305 °C; `CN1CCc2c(Br)ccc([N+](=O)[O-])c2C1`: 85 to 87 °C; `CC1Cc2ccc(Cl)cc2CN(CCO)C1=O` (stereo not drawn): 139 to 140 °C.
Next, `CC(C)(C)c1cc(CBr)ccc1O[Si](C)(C)C(C)(C)C`: 54 to 55 °C; `Cc1ccc(S(=O)(=O)N(C)c2ccc(Cl)cc2Cl)cc1`: 86 to 87 °C; `COc1cc(OC)c2c(C)c3n(c(=O)c2c1)CCCC3`: 165 to 168 °C.
As for `CCOC(=O)/C=C/c1cn(-c2ccccc2)nc1OCc1ccccc1`, the figure is 105 to 106 °C; as for `CS(=O)(=O)c1ccc(Oc2ccc([N+](=O)[O-])cc2C#N)cc1`, 205 to 206 °C; as for `CC(N(CC(=O)O)C(=O)c1ccc(C(F)(F)F)cc1)C(O)(Cn1cncn1)c1ccc(C(F)(F)F)cc1` (stereo not drawn), 201 to 204 °C.
With `O=S(=O)(CCC=C(F)F)c1nccc(-c2ccccc2)n1`, the melting point lay within 103 to 104 °C.
As for `COc1cc(C#N)ccc1C1=CC(C)(C)Oc2ccc(C#N)cc21`, the figure is 137 to 139 °C.
As for `CNc1cccc(S(=O)(=O)NC(=O)Nc2nc(OC)cc(OC)n2)n1`, the figure is 166 to 168 °C; as for `Cc1ccc(-c2ccc3c(c2)C=C(C(=O)Nc2ccc(Cc4ncccc4O)cc2)CCO3)cc1`, 285 to 288 °C.
Next, `COc1ccc(C2=NCC(NN)=Nc3ccc(Cl)cc32)cc1`: 213 to 215 °C; `COC(=O)c1ccccc1-n1c(CCl)nc2cccc(Cl)c2c1=O`: 177 to 178 °C.
Consider `CC#CC(O)(C(=O)OC)c1ccccc1` (stereo not drawn), for which the melting point was in the range of 64 to 65 °C.
Next, `COc1ccc(-c2ccc3cnc(Nc4cc5c(cc4F)CCC(=O)N5)nn23)cn1`: 295 °C.
Next, `CCCc1c(SCCCOc2ccc(C#N)cc2)ccc(C(C)=O)c1O`: 90 to 92 °C.
Next, `Cn1nnnc1-c1cn(C)c2cc(N3CCCCC3)ccc2c1=O`: 180 to 183 °C; `COc1ccc(-c2nn3c(N4CCCC4)nnc3c3ccccc23)cc1`: 196 to 198 °C.
`Cn1nc(C(=O)C(=O)c2ccccc2)ccc1=O`: the melting point lay in the range of 89 to 92 °C.
For the compound `CCOc1cc(C(=CC#N)c2ccc(OC)c(C)c2)ccc1OC`, the melting point was 86 to 88 °C.
Turning to `O=C(Nc1ccccc1)C1=C(N2CCCC2)COC1=O`, the melting point was in the range of 200 to 201 °C.
As for `CCCCCN(CCC12CC3CC(CC(C3)C1)C2)C(=O)NCCNc1ccncc1`, the melting point was 134 °C.
Next, `CC(C(=O)N(C)C)n1cc(-c2ccccc2)c(-c2ccccc2)n1` (stereo not drawn): 122 to 124 °C; `NC(=O)c1csc(-c2cccc([N+](=O)[O-])c2)n1`: 239 to 241 °C.
In turn, `Nc1ccccc1C(=O)NO` yielded a melting point of 140 to 142 °C.
The compound `CCCCCCCCOc1ccc(-c2nc(-c3ccccc3)c(-c3ccccc3)n2CCCCCCCC(=O)O)cc1` displayed a melting point of 114 to 115 °C.
As for `COC(=O)NCCc1ccc(C(=O)OC)c(S(=O)(=O)NC(=O)Nc2nc(OC)cc(OC)n2)c1`, the figure is 165 to 169 °C; as for `C=C(C)C(=O)NCC(OC)OC`, 30 to 32 °C.
Next, `COc1cc(Nc2nccc(Nc3ccccc3)n2)cc(OC)c1OC`: 186 °C; `CSC(=Nc1ccc(Cl)c(Cl)c1)NS(C)(=O)=O`: 122 to 125 °C.
As for `COC(=O)c1c(F)cc(OCCNC(=O)OCc2ccccc2)cc1F`, the figure is 95 to 97 °C; as for `O=[N+]([O-])c1ccc2c(c1)S(=O)(=O)c1cc([N+](=O)[O-])ccc1-2`, 282 to 287 °C.
In turn, `COc1cc(C=CC=C2SC(=O)NC2=O)ccc1OCc1coc(-c2ccccc2)n1` came in with a melting point of 230 to 231 °C.
Next, `OC1CCN(Cc2ccc(Br)cn2)CC1`: 52 to 54 °C.
With `COC(=O)Cc1ccccc1OCc1cc(OCc2nc(-c3ccccc3)sc2C)no1`, the melting point was 108 to 109 °C.
Next, `O=C(CCCC1CCCCC1)C1=C(O)COC1=O`: 38 to 42 °C.
Next, `CCCCc1nc2c(N)nc3ccccc3c2n1CCCCNS(=O)(=O)c1cccc2c(N(C)C)cccc12`: 223 to 224 °C; `O=C1Nc2ccccc2S(=O)(=O)c2cc(C(F)(F)F)ccc21`: 240 to 241 °C; `CC(=O)OCCCc1nc(-c2ccc(Cl)cc2)co1`: 37 to 37.5 °C.
Next, `CCCc1nc2cccc(C(=S)OC)c2n1Cc1ccc(-c2ccccc2C#N)cc1`: 107 to 108 °C; `COc1cc(OC)c2c(=O)[nH]c(-c3cc(C)c(OCC(=O)O)c(C)c3)nc2c1`: 270 to 272 °C.
For `c1ccc(CN2CCC3(CC2)Oc2ccccc2Cn2cccc23)cc1`, the melting point lay within 109 to 111 °C.
As for `CC(=O)OS(=O)(=O)c1ccc(C)cc1`, the figure is 56 to 60 °C.
`Cc1c(C)c2c(c(C)c1NC(=O)c1ccc(F)cc1)C(c1ccccc1)C(C)(C)O2` (stereo not drawn) yielded a melting point of 156 to 158 °C.
As for `Cc1cc(CNC(=O)c2cc(-c3ccc(C(C)(C)C)cc3)n(Cc3ccccc3)n2)ccc1OC(C)(C)C(=O)O`, the figure is 88 °C.
Turning to `COc1c[nH]c(=O)c([N+](=O)[O-])c1`, the melting point was 179 °C.
`COc1cc2c(cc1O)CCN(Cc1cccc(Oc3ccccc3)c1)C2` displayed a melting point of 139 to 140 °C.
Next, `CCCCOc1ccc2nc(C(C)=O)c(O)cc2c1`: 71 to 73 °C.
As for `N#Cc1ccc(Cc2c[nH]nn2)cc1`, the figure is 83 °C; as for `CNC(=O)Nc1cc(OC)c(-c2ccc(C[C@H](NC(=O)c3c(Cl)cccc3Cl)C(=O)O)cc2)c(OC)c1`, 206 to 207 °C; as for `COc1cccc2c1nc(C(F)F)n2-c1nc(Nc2cccnn2)nc(N2CCOCC2)n1`, 261 to 263 °C.
As to `CCC(=O)c1cn(C)cc(-c2cccc(C(F)(F)F)c2)c1=O`, the melting point is 136 to 138 °C.
Compound `CCCCOCCOc1ccc(-c2ccc(N3CCCC(C)C3)c(C=CC(=O)O)c2)cc1` (stereo not drawn) registered a melting point of 125 to 127 °C.
Next, `CCCCc1cc2cc(NS(C)(=O)=O)ccn2c1C(=O)c1ccc(OCCCN(CCCC)CCCC)cc1`: 87 to 88 °C.
In the case of `O=C(Nc1ccc(C(=O)N(CCN2CCC(C(=O)c3ccc(F)cc3)CC2)c2cccnc2)cc1)c1ccccc1`, the melting point was in the range of 162 to 166 °C.
Next, `O=C1OC(=O)c2c1cccc2N1C(=O)CCCC1=O`: 234 to 236 °C.
